Data taken from paper PMC12019583 (Journal of Neurochemistry, 2025).
Several values for one entry are separate records, joined by “and”; a condition that tells them apart may be missing. Equal entries are not always repeated. Where two headings read alike, the source gives them in different places. One block for each molecule: values may come before it.

Tests used:
human SERT [1] = biological target: T1, human SERT (Homo sapiens, UniProt P31645); test: Whole-cell patch-clamp recordings of 5-HT-induced currents in HEK293 cells expressing human SERT; assay type: cell-based; settings: for effect on serotonin-induced inwardly directed current: 10 μM, 5-HT 10 μM
Method: Whole‐cell patch‐clamp recordings were performed as recently described (Niello et al. [2023]). HEK293 cells stably expressing wild‐type GFP‐tagged human SERT were seeded at low density on poly‐D‐lysine‐coated dishes. Twenty hours after seeding, these cells were subjected to patch‐clamp recordings in the whole‐cell configuration. […] The internal solution in the patch pipette contained 133 mM potassium gluconate (CH2OH(CHOH)4COOK), 5.9 mM NaCl, 1 mM CaCl2, 0.7 mM MgCl2, 10 mM HEPES, 10 mM EGTA (pH adjusted to 7.2 with KOH). Drugs were applied using a 4‐tube ALA perfusion manifold (NPI Electronic GmbH, Germany) and a DAD‐12 superfusion system (Adams & List, Westbury, NY, USA) allowing for complete solution exchange around the cells within 100 ms. Currents were recorded via an Axopatch 200B amplifier (MDS Analytical Technologies, Sunnyvale, California) and analyzed using Clampfit 10.2 software. Passive holding currents were subtracted, and the traces were filtered using a 100 Hz digital Gaussian low‐pass filter.
(§1) The symbols represent three to four experiments performed in triplicate on different days, the error bars denote standard deviation. The red curves indicate the conditions promoting the optical switching (at a wavelength of 365 nm), the black curves indicate standard illumination. […] The rate of current recovery upon removal of (Z)‐9 from the bath solution (i.e., k off) was estimated by a fit of a monoexponential function to the current trace (see solid red line). […] Panel d: Viability assay employing trypan blue. […] PAR = paroxetine.

human GAT3 = biological target: T2, human GAT3 (Homo sapiens, UniProt P48066); test: Uptake inhibition of [3H]GABA in HEK293 cells expressing hGAT3; assay type: cell-based; settings: for IC50: [3H]GABA uptake, read-out: hGAT3 IC50 ± SD
T2 construct: expressed in transfected cells; host or cells: HEK293
T2 sequence (P48066 1-632): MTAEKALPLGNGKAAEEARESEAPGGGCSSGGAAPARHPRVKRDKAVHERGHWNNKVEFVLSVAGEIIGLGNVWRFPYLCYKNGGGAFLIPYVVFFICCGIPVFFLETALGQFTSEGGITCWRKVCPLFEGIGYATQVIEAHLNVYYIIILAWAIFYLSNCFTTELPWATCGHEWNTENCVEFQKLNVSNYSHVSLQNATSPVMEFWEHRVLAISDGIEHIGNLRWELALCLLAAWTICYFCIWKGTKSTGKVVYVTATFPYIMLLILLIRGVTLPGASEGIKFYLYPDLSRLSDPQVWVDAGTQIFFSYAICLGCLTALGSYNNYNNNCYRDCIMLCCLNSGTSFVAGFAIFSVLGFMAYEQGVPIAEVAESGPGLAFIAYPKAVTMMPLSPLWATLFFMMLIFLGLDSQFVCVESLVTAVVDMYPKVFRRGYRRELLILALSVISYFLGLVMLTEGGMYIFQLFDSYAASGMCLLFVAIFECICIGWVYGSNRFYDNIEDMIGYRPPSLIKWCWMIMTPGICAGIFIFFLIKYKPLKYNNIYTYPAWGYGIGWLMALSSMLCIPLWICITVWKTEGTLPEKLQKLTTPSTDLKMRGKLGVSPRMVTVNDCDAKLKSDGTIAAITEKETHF
Method: (§2) The cells were cultured in a humidified atmosphere (37°C, 5% CO2) on standard plastic culture ware. To maintain the selection pressure for the stable cell lines, 150 units/mL Geneticin was added. Cells were typically not passaged over 25 times.
(§3) After 10 min, the preincubation solution was replaced by 0.05 mL/well KHB still containing the substance of interest and tritiated substrate additionally (50 nM [^3H]MPP^+ for the YhDAT; 100 nM [^3H]5HT for the YhSERT; 30 nM [^3H]GABA for the YhGAT1, hGAT3 and YrGAT1 and 20 nM [^3H]MPP^+ for the hNET) maintaining UV light treatment/no additional light treatment. Substrate uptake was stopped after 1 min (for [^3H]5HT) or 3 min (for [^3H]GABA and [^3H]MPP^+), respectively, by exchange of the substrate‐containing buffer with 0.2 mL/well ice‐cold KHB. The KHB was aspirated immediately, and the cells were lysed in 0.2 mL 1% SDS, transferred to 6‐mL scintillation vials, and assayed for [^3H] content by liquid scintillation counting.
(§4) Data from uptake experiments were subjected to non‐linear, least squares curve fitting to equations for a rectangular hyperbola using a Marquardt–Levenberg algorithm (GraphPad Prism v.9).

rat GAT1 = biological target: T3, rat GAT1 (Rattus norvegicus, UniProt P23978); test: Uptake inhibition of [3H]GABA in HEK293 cells expressing YrGAT1; assay type: cell-based; settings: for IC50: [3H]GABA uptake, read-out: rGAT IC50 ± SD
T3 construct: expressed in transfected cells
Method: as §2, §3, §4

human SERT [2] = biological target: T1, human SERT; test: Uptake inhibition of [3H]5-HT in HEK293 cells stably expressing YhSERT; assay type: cell-based; settings: for IC50: [3H]5-HT uptake, read-out: SERT IC50 ± SD
Method: as §2, §3, §4

human GAT1 = biological target: T4, human GAT1 (Homo sapiens, UniProt P30531); test: Uptake inhibition of [3H]GABA in HEK293 cells expressing YhGAT1; assay type: cell-based; settings: for IC50: [3H]GABA uptake, read-out: hGAT1 IC50 ± SD
T4 construct: expressed in transfected cells; host or cells: HEK293
Method: as §2, §3, §4

HEK293 cells = test: Viability assay employing trypan blue; assay type: cell-based, human; settings: dose-dependent, up to high concentrations, DMSO positive control
From the text: as §1

NET = biological target: NET; design: method as in Kristensen et al. [2011]; Owens et al. [2001]; settings: ref Kristensen et al. [2011]; Owens et al. [2001]; cited from earlier work
[3] = Thermal (Z)/(E) isomerization half-life by UV/Vis; assay type: physicochemical; settings: (Z)-isomer; 50 μM in dry DMSO, 23 °C; read-out: half-life time of thermal (Z)/(E) isomerization (converted)
Method: The rough experimental half-life time of the ( Z)-isomer of compound 9 was determined on a UV-1800 UV/Vis spectrophotometer from Shimadzu at 23 °C. A 50 μM sample of the compound in dry DMSO was irradiated with 365 nm for 5 seconds using the respective OmniCure® LED head at 100% power. Once the highest possible (Z)-isomer content was reached, the absorption at 331 nm, the ( E)-isomer’s absorption maximum l max, was regularly measured over the course of 12 hours. […]
of the thermal ( Z)/(E) isomerization.
A mathematical fitting function was used to linearize the obtained absorption data over time according to Equation S1.
AAllllllllllllllllllll = ln (AAmmllmm − AAtt )
Equation S1. Linear fit used for absorption AA .
The linearized absorption value gained by equation S1 was plotted over time and a linear fit function was applied. The obtained fit function gave the rate constant k as its slope value.
Next, the half- life time was calculated according to Equation S2. The resulting graph is shown […]
Equation S2. Calculation of half-life ττ1/2 time from rate constant kk .
This method of thermal half- life time determination wa s sufficiently precise for the […]
been shown (Singer et al, 2023) to yield similar results as compiling an Eyring plot for half-life time determination without the compound relax ing back to nearly 100% (E)-isomer.
Graph S1. […]

[4] = UHPLC-TOF-MS quantification of (E)/(Z) isomer content in photostationary state; assay type: physicochemical; settings: after irradiation 365 nm 30 s; 10 μM; several solvents (DMSO and aqueous)
Method: Additionally, quantification measurements with UHPLC‐TOF‐MS were conducted to determine the efficiency of the (E) to (Z) isomerization of azo‐paroxetine. […] Moreover, biological uptake inhibition assay conditions were mimicked during the switching experiments by choosing respective solvents and sample concentrations. Samples representing the dark state were taken before irradiation, samples representing the (Z)‐state were obtained after irradiation with […] (intensity 600 mW/cm^2 10 mm focusing lens, λ 365 nm) for 30 s. […] Bandara and Burdette [2012]). […] Switching concentration 10 μM, concentration in UHPLC‐TOF‐MS sample 1 μM, UHPLC‐TOF‐MS sample preparation with water/acetonitrile 90/10.

hNET = hNET (Homo sapiens, UniProt P23975); test: Uptake inhibition of [3H]MPP+ in HEK293 cells stably expressing hNET; assay type: cell-based; settings: for loss in affinity at NET in comparison with paroxetine (factor): basal light; for reduction in IC50 by optical switching at NET: basal vs 365 nm; for IC50: [3H]MPP+ uptake, read-out: NET IC50 ± SD
Method: as §2, §3, §4

human DAT = human DAT (Homo sapiens, UniProt Q01959); test: Uptake inhibition of [3H]MPP+ in HEK293 cells stably expressing YhDAT; assay type: cell-based; settings: for loss in affinity at DAT in comparison with paroxetine (factor): basal light; for effect of optical switching on inhibitory potency at DAT: basal vs 365 nm; for IC50: [3H]MPP+ uptake, read-out: DAT IC50 ± SD
Method: as §2, §3, §4

T1 sequence (P31645 whole entry, the tested form may be a part): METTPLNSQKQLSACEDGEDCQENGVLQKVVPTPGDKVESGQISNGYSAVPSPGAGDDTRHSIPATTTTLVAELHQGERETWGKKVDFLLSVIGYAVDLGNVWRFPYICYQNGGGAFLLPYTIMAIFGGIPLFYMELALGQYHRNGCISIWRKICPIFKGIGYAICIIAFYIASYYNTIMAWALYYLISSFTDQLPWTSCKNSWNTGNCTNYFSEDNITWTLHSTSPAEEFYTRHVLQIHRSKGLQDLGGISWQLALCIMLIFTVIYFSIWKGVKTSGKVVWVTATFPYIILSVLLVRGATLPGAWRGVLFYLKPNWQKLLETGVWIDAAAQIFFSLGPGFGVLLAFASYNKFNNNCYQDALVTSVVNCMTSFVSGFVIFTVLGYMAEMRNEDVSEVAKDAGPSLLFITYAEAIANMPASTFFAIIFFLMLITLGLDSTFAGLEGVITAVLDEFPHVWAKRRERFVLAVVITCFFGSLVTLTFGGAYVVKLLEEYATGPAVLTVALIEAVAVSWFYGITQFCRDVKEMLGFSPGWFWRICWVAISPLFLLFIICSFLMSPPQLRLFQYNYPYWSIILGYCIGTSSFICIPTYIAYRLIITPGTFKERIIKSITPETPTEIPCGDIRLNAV
human DAT, sequence (Q01959 whole entry): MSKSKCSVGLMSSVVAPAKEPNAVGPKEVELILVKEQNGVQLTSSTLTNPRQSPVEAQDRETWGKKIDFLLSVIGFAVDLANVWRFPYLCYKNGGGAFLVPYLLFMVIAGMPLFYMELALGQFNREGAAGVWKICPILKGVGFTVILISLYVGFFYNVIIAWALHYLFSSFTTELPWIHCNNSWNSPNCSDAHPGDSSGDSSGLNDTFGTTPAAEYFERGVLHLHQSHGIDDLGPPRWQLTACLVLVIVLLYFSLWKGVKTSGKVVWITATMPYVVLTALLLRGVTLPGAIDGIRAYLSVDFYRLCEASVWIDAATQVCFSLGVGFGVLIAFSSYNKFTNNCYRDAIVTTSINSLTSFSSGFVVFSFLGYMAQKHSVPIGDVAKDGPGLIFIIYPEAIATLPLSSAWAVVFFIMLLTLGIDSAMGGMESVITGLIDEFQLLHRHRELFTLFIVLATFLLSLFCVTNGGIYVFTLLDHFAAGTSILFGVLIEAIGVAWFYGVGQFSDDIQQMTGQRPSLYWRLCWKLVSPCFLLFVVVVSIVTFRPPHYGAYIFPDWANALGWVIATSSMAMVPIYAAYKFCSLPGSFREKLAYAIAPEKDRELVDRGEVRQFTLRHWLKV
hNET, sequence (P23975 whole entry): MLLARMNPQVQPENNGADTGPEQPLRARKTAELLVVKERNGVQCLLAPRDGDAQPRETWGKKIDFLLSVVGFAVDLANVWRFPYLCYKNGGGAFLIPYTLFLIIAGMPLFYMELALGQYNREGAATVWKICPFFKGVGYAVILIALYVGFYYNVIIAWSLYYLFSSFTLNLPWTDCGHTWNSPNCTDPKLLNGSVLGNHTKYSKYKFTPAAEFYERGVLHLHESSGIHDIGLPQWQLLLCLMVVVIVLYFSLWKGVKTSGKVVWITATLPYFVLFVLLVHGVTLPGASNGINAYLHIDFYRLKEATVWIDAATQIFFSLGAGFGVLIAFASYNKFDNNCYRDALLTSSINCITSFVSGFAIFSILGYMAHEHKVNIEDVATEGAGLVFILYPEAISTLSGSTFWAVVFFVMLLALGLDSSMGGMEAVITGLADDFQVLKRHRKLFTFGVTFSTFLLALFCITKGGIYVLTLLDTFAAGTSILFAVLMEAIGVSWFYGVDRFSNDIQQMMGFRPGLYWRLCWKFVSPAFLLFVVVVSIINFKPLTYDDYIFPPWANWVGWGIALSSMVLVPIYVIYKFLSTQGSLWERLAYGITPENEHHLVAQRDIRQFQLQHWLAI
T4 sequence (P30531 whole entry): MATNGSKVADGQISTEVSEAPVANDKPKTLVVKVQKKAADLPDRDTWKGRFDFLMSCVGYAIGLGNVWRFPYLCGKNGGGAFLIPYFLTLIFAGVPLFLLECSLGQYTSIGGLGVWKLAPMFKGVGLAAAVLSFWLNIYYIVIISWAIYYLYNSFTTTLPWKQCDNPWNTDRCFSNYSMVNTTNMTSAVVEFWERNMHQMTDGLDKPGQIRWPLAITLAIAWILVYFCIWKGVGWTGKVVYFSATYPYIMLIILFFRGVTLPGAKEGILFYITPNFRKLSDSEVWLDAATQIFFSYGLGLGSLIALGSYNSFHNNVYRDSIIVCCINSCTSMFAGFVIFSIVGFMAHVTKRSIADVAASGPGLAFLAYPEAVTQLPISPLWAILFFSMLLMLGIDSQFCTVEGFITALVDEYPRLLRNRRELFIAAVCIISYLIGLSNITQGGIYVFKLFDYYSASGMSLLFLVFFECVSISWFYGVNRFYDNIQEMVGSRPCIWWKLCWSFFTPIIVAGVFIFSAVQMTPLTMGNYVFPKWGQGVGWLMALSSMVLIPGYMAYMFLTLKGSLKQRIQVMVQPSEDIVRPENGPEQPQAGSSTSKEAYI

effect on serotonin-induced inwardly directed current (human SERT [1]; (E)-isomer, standard light): marginal blockade
Molecule: c1ccc(/N=N/c2ccc([C@@H]3CCNC[C@H]3COc3ccc4c(c3)OCO4)cc2)cc1 [(E)‐azo‐paroxetine (9)]

Molecule: azobenzene [reference compound]
inhibition of GABA uptake at human GAT3 (human GAT3; up to 1 mM): more than 60%
inhibition of GABA uptake at rat GAT1 (rat GAT1; (E)-configuration): comparable to the value of the human GAT1
inhibitory effect on [3H]5-HT uptake at human SERT (human SERT [2]; concentrations up to 1 mM, basal and 365 nm): could not really observe any significant inhibitory effects
inhibition of GABA uptake at human GAT1 (human GAT1; (E)-configuration, up to 1 mM): up to 40%
cellular toxicity effects (trypan blue viability) (HEK293 cells): neither azo‐paroxetine (9) nor azobenzene

IC50 (human GAT3; λ basal): 51 ± 3.7 µM
IC50 (rat GAT1; λ basal): 264 ± 140 µM
IC50 (human GAT1; λ basal): 122 ± 81 µM
Molecule: Fc1ccc([C@@H]2CCNC[C@H]2COc2ccc3c(c2)OCO3)cc1 [Paroxetine, paroxetine, reference compound]
Ki (NET): 0.156 ± 0.029 µM

IC50 (human GAT3; λ 365 nm): 90.5 ± 24.4 µM
IC50 (human GAT3; λ basal): 55 ± 16.4 µM
improvement of affinity at rat GAT1 relative to paroxetine (rat GAT1): around two to three‐fold
IC50 (rat GAT1; λ 365 nm): 126 ± 20.6 µM
IC50 (rat GAT1; λ basal): 88.9 ± 11.8 µM
half-life at 50 μM [3]: 156 h
(Z)-isomer content in photostationary state [4]: 83%–87% and 83%
koff (human SERT [1]; HEK293, photoequilibrated (365 nm) state, n = 5, read-out: off-rate (k off)): 0.18 ± 0.031 s⁻¹
loss in affinity at NET in comparison with paroxetine (factor) (hNET; listed as azo‐paroxetine): ~ 5
loss in affinity at NET in comparison with paroxetine (factor) (hNET; listed as azo‐paroxetine (9)): 2 to 5
reduction in IC50 by optical switching at NET (hNET; listed as azo‐paroxetine): 2 to 3 fold
reduction in IC50 by optical switching at NET (hNET; listed as azo‐paroxetine (9)): ~threefold
IC50 (hNET; λ 365 nm): 5.41 ± 3.32 µM
IC50 (hNET; λ basal): 15.4 ± 4.04 µM
loss in affinity at SERT in comparison with parent compound paroxetine (factor) (human SERT [2]; basal light): 171 fold
IC50 (human SERT [2]; λ 365 nm (PSS, mainly (Z)-isomer)): 0.76 ± 0.18 µM
IC50 (human SERT [2]; λ basal (standard light, (E)-isomer)): 9.23 ± 3.06 µM
loss in affinity at DAT in comparison with paroxetine (factor) (human DAT; listed as azo‐paroxetine): ~ 3.7
loss in affinity at DAT in comparison with paroxetine (factor) (human DAT; listed as azo‐paroxetine (9)): 2 to 5
effect of optical switching on inhibitory potency at DAT (human DAT; listed as azo‐paroxetine): 2 to 3 fold
effect of optical switching on inhibitory potency at DAT (human DAT; listed as azo‐paroxetine (9)): 1.7 fold
IC50 (human DAT; λ 365 nm): 3.77 ± 0.79 µM
IC50 (human DAT; λ basal): 6.33 ± 2.06 µM
IC50 (human GAT1; λ 365 nm): 107 ± 15 µM
IC50 (human GAT1; λ basal): 80.8 ± 21.6 µM
Molecule: c1ccc(/N=N/c2ccc([C@@H]3CCNC[C@H]3COc3ccc4c(c3)OCO4)cc2)cc1 [Azo‐paroxetine (9)]
effect on serotonin-induced inwardly directed current (human SERT [1]; photoequilibrated (365 nm)): completely abolished the inwardly directed current
cellular toxicity effects (trypan blue viability) (HEK293 cells; listed as azo‐paroxetine): did not find any significant toxic impact
